Source: US11414436B2, “Non-coordinating anion type activators containing cation having large alkyl groups” (ExxonMobil Chemical Patents Inc., priority 2018, dated 2022)
Values joined by “and” are separate entries in the source; they are usually repeats but may differ in a detail not shown here. Identical values can stand only once.

What was measured:
[1] = Solubility studies of the activators (saturated solution in isohexane or methylcyclohexane); assay type: physicochemical; details: for Solubility limit in i-hexane (mM at 25° C.) / Solubility limit in i-hexane (wt % at 25° C.): isohexane; for Solubility limit in MeCy (mM at 25° C.): methylcyclohexane
Experimental: Solubility Studies of the Activators
Procedure for Solid Activators.
A saturated solution of each of the solid ammonium borate activators was prepared by stirring an excess of the activator with either isohexane or methylcyclohexane solvent for several hours at 25° C. The mixture was then filtered and a known volume of the filtrate was evaporated to dryness in a tared vial. The vial was then weighed to determine the mass of activator that was dissolved in the aliquot. The concentration of the saturated solution is presented in millimoles of activator per liter of solution (mM).
Procedure for Activators that Form Emulsions.
A saturated solution of the activator was prepared by slowly adding the solvent to a pre-weighed amount of the activator. The final volume was determined as the minimum amount of solvent required to convert the emulsion into a homogeneous solution. The concentration of the saturated solution is presented in millimoles of activator per liter of solution (mM). Alternatively, an emulsion of the activator was prepared by adding the solvent to an excess amount of activator. The resulting emulsion was separated from the undissolved solids by decanting the emulsion into a tared vial. Solvent was then added dropwise until the emulsion became homogeneous. The mass of the final solution was measured and then the solvent was evaporated to dryness to obtain the mass of the activator. The concentration of the saturated solution is presented in millimoles of activator per liter of solution (mM).

[2] = as above; assay type: physicochemical; details: methylcyclohexane
[3] = Propylene homopolymerization in parallel pressure reactor, MCN-1 with ammonium borate activators; details: for activity: isohexane
Text: Polymerization in Parallel Pressure Reactor
Solvents, polymerization-grade toluene, and isohexane were supplied by ExxonMobil Chemical Company and purified by passing through a series of columns: two 500 cc Oxyclear cylinders in series from Labclear (Oakland, Calif.), followed by two 500 cc columns in series packed with dried 3 Å mole sieves (8-12 mesh; Aldrich Chemical Company), and two 500 cc columns in series packed with dried 5 Å mole sieves (8-12 mesh; Aldrich Chemical Company). 1-octene (C8) and 1-hexene (C6) (98%, Aldrich Chemical Company) were dried by stirring over NaK overnight followed by filtration through basic alumina (Aldrich Chemical Company, Brockman Basic 1).
(§1) Solutions of the metal complexes and activators were prepared in a drybox using toluene or methylcyclohexane. Concentrations were typically 0.2 mmol/L. Tri-n-octylaluminum (TNOAL, neat, AkzoNobel) was typically used as a scavenger. Concentration of the TNOAL solution in toluene ranged from 0.5 to 2.0 mmol/L.
(§2) Polymerizations were carried out in a parallel pressure reactor, as generally described in U.S. Pat. Nos. 6,306,658; 6,455,316; 6,489,168; WO 00/09255; and Murphy, V. et al. (2003) “A Fully Integrated High-Throughput Screening Methodology for the Discovery of New Polyolefin Catalysts: Discovery of a New Class of High Temperature Single-Site Group (IV) Copolymerization Catalysts,” J. Am. Chem. Soc., v. 125, pp. 4306-4317, each of which is fully incorporated herein by reference. […] Although the specific quantities, temperatures, solvents, reactants, reactant ratios, pressures, and other variables are frequently changed from one polymerization run to the next, the following describes a typical polymerization performed in a parallel pressure reactor.
Catalyst systems dissolved in solution were used in the polymerization examples below, unless specified otherwise.
RUN A: Propylene Homopolymerization (PP).
The reactor was prepared as described above and purged with propylene. For the examples in Table 2, the catalyst and activator solutions were prepared in toluene. […] Isohexane was then injected into each vessel at room temperature followed by a predetermined amount of propylene gas. The reactor was heated to the set temperature while stirring at 800 rpm, and the scavenger, activator and catalyst solutions were injected sequentially to each vessel. The polymerization was allowed to proceed as described previously.
A series of propylene polymerizations were performed in parallel pressure reactors (PPRs) developed by Symyx Technologies, Inc. In these polymerizations, the metallocene rac-dimethylsilyl-bis(indenyl)hafnium dimethyl (MCN-1) was used along with several different ammonium borate activators. Polymerizations were performed at 85° C. and 100° C.
Propylene homopolymerization (PP).
A series of propylene polymerizations were performed in the parallel pressure reactor similar to the procedure described above. In these studies rac-dimethylsilyl-bis(indenyl)hafnium dimethyl (MCN-1) was used along with ammonium borate activators.

[4] = Ethylene-octene copolymerization in parallel pressure reactor, non-metallocene catalyst CAT-2; details: catalyst CAT-2 20 nmol; activator 1.1 equiv; 100° C.; 135 psi; 1-octene 100 uL; TNOAL 0.5 umol
Experimental: as §1, §2
(§3) Ethylene-Octene Copolymerization (EO).
(§4) A pre-weighed glass vial insert and disposable stirring paddle were fitted to each reaction vessel of the reactor, which contains 48 individual reaction vessels. The reactor was then closed and purged with ethylene. Each vessel was charged with enough solvent (typically isohexane) to bring the total reaction volume, including the subsequent additions, to the desired volume, typically 5 mL. 1-octene, if required, was injected into the reaction vessel and the reactor was heated to the set temperature and pressurized to the predetermined pressure of ethylene, while stirring at 800 rpm. The aluminum compound (such as tri-n-octylaluminum) in toluene was then injected as scavenger followed by addition of the activator solution (typically 1.0-1.2 molar equivalents).
(§5) The catalyst (and activator solutions for Run A) were all prepared in toluene. The catalyst solution (typically 0.020-0.080 μmol of metal complex) was injected into the reaction vessel and the polymerization was allowed to proceed until a pre-determined amount of ethylene (quench value typically 20 psi) had been used up by the reaction. Alternatively, the reaction may be allowed to proceed for a set amount of time (maximum reaction time typically 30 minutes). Ethylene was added continuously (through the use of computer controlled solenoid valves) to the autoclaves during polymerization to maintain reactor gauge pressure (P setpt, +/−2 psig) and the reactor temperature (T) was monitored and typically maintained within +/−1° C. The reaction was quenched by pressurizing the vessel with compressed air. After the reactor was vented and cooled, the glass vial insert containing the polymer product and solvent was removed from the pressure cell and the inert atmosphere glove box, and the volatile components were removed using a Genevac HT-12 centrifuge and Genevac VC3000D vacuum evaporator operating at elevated temperature and reduced pressure. The vial was then weighed to determine the yield of the polymer product. The resultant polymer was analyzed by Rapid GPC (see below) to determine the molecular weight, by FT-IR (see below) to determine percent octene incorporation, and by DSC (see below) to determine melting point (Tm).
(§6) Equivalence is determined based on the mole equivalents relative to the moles of the transition metal in the catalyst complex.
(§7) Activators of the present disclosure can also be used for activating non-metallocene catalysts for polymerization of olefins. Table 4 illustrates copolymerization of ethylene and octene using activators of the present disclosure and non-metallocene catalysts (CAT-1, CAT-2, CAT-3, and CAT-4).

[5] = Ethylene-octene copolymerization in parallel pressure reactor, non-metallocene catalyst CAT-1; details: catalyst CAT-1 20 nmol; activator 1.1 equiv; 100° C.; 135 psi; 1-octene 100 uL; TNOAL 0.5 umol
Experimental: as §1, §2, §3, §4, §5, §6, §7

[6] = Ethylene-octene copolymerization in parallel pressure reactor, non-metallocene catalyst CAT-3; details: catalyst CAT-3 20 nmol; activator 1.1 equiv; 100° C.; 135 psi; 1-octene 100 uL; TNOAL 0.5 umol
Experimental: as §1, §2, §3, §4, §5, §6, §7

[7] = Ethylene-octene copolymerization in parallel pressure reactor, non-metallocene catalyst CAT-4; details: catalyst CAT-4 20 nmol; activator 1.1 equiv; 100° C.; 135 psi; 1-octene 100 uL; TNOAL 0.5 umol
Experimental: as §1, §2, §3, §4, §5, §6, §7

[8] = propylene, 100 °C, 150 psi, MCN-1 = 20 nmol, activator = 20 nmol, TNOAL 500 nmol

Compound: CCCCCCCCCCCCCCCCCC[NH+](CCCCCCCCCCCCCCCCCC)c1ccccc1C.Fc1c(F)c(F)c2c(F)c([B-](c3c(F)c(F)c4c(F)c(F)c(F)c(F)c4c3F)(c3c(F)c(F)c4c(F)c(F)c(F)c(F)c4c3F)c3c(F)c(F)c4c(F)c(F)c(F)c(F)c4c3F)c(F)c(F)c2c1F [DOdoTH-BF28, 2-methyl-N,N-dioctadecylbenzenaminium-BF28]
- Solubility limit in i-hexane (mM at 25° C.) [1]: 3.0 mM
- Solubility limit in i-hexane (wt % at 25° C.) [1]: 0.73 wt %
- Solubility limit in MeCy (mM at 25° C.) [1]: >190 mM
- Solubility limit in MeCy (wt % at 25° C.) [2]: >40 wt %

Compound: CCCCCCCCCC[NH+](C)c1ccccc1.Fc1c(F)c(F)c([B-](c2c(F)c(F)c(F)c(F)c2F)(c2c(F)c(F)c(F)c(F)c2F)c2c(F)c(F)c(F)c(F)c2F)c(F)c1F [MDAH-BF20, N-decyl-N-methylanilinium-BF20]
- Solubility limit in i-hexane (mM at 25° C.) [1]: 1.3 mM
- Solubility limit in i-hexane (wt % at 25° C.) [1]: 0.18 wt %
- Solubility limit in MeCy (mM at 25° C.) [1]: 1.4 mM
- Solubility limit in MeCy (wt % at 25° C.) [2]: 0.17 wt %

Compound: CCCCCCCCCC[NH+](C)c1ccccc1.Fc1c(F)c(F)c2c(F)c([B-](c3c(F)c(F)c4c(F)c(F)c(F)c(F)c4c3F)(c3c(F)c(F)c4c(F)c(F)c(F)c(F)c4c3F)c3c(F)c(F)c4c(F)c(F)c(F)c(F)c4c3F)c(F)c(F)c2c1F [MDAH-BF28, N-decyl-N-methylanilinium-BF28]
- Solubility limit in i-hexane (mM at 25° C.) [1]: 0.9 mM
- Solubility limit in i-hexane (wt % at 25° C.) [1]: 0.12 wt %
- Solubility limit in MeCy (mM at 25° C.) [1]: 1.7 mM
- Solubility limit in MeCy (wt % at 25° C.) [2]: 0.21 wt %

Compound: CCCCCCCCCCCCCCCCCCc1ccc([NH+](C)C)cc1.Fc1c(F)c(F)c([B-](c2c(F)c(F)c(F)c(F)c2F)(c2c(F)c(F)c(F)c(F)c2F)c2c(F)c(F)c(F)c(F)c2F)c(F)c1F [OdDMAH-BF20, N,N-dimethyl-4-octadecylbenzenaminium-BF20]
- Solubility limit in i-hexane (mM at 25° C.) [1]: 0.8 mM
- Solubility limit in i-hexane (wt % at 25° C.) [1]: 0.10 wt %
- Solubility limit in MeCy (mM at 25° C.) [1]: 7.9 mM
- Solubility limit in MeCy (wt % at 25° C.) [2]: 1.1 wt %

Compound: CCCCCCCCCCCCCCCCCCc1ccc([NH+](C)C)cc1.Fc1c(F)c(F)c2c(F)c([B-](c3c(F)c(F)c4c(F)c(F)c(F)c(F)c4c3F)(c3c(F)c(F)c4c(F)c(F)c(F)c(F)c4c3F)c3c(F)c(F)c4c(F)c(F)c(F)c(F)c4c3F)c(F)c(F)c2c1F [OdDMAH-BF28, N,N-dimethyl-4-octadecylbenzenaminium-BF28]
- Solubility limit in i-hexane (mM at 25° C.) [1]: <0.1 mM
- Solubility limit in i-hexane (wt % at 25° C.) [1]: <0.1 wt %
- Solubility limit in MeCy (mM at 25° C.) [1]: 1.9 mM
- Solubility limit in MeCy (wt % at 25° C.) [2]: 0.3 wt %

Compound: Di(hydrogenated tallow)methylamine-BF20 [M2HTH-BF20]
- activity [3, 8]: 46 kg/mmol/h and 30 kg/mmol/h and 36 kg/mmol/h
- activity [4]: 806 kg/mmol/h and 755 kg/mmol/h
- activity [5]: 2030 kg/mmol/h and 2214 kg/mmol/h
- activity [6]: 711 kg/mmol/h and 786 kg/mmol/h
- activity [7]: 51 kg/mmol/h and 63 kg/mmol/h

Compound: Di(hydrogenated tallow)methylamine-BF28 [M2HTH-BF28]
- activity ([3]; Activator Equiv 1.0, TNOAL 0.25 umol, MCN-1 30 nmol, 85° C., propylene 135 psi): 187 kg/mmol/h and 167 kg/mmol/h and 160 kg/mmol/h
- activity ([3]; Activator Equiv 1.0, TNOAL 0.50 umol, MCN-1 30 nmol, 85° C., propylene 135 psi): 151 kg/mmol/h and 113 kg/mmol/h and 118 kg/mmol/h
- activity ([3]; Activator Equiv 1.0, TNOAL 0.75 umol, MCN-1 30 nmol, 85° C., propylene 135 psi): 102 kg/mmol/h and 95 kg/mmol/h
- activity ([3]; Activator Equiv 1.2, TNOAL 0.25 umol, MCN-1 30 nmol, 85° C., propylene 135 psi): 203 kg/mmol/h and 195 kg/mmol/h and 166 kg/mmol/h
- activity ([3]; Activator Equiv 1.2, TNOAL 0.50 umol, MCN-1 30 nmol, 85° C., propylene 135 psi): 169 kg/mmol/h and 153 kg/mmol/h
- activity ([3]; Activator Equiv 1.2, TNOAL 0.75 umol, MCN-1 30 nmol, 85° C., propylene 135 psi): 119 kg/mmol/h and 104 kg/mmol/h
- activity ([3]; Activator Equiv 1.4, TNOAL 0.25 umol, MCN-1 30 nmol, 85° C., propylene 135 psi): 204 kg/mmol/h and 196 kg/mmol/h and 178 kg/mmol/h
- activity ([3]; Activator Equiv 1.4, TNOAL 0.50 umol, MCN-1 30 nmol, 85° C., propylene 135 psi): 157 kg/mmol/h and 142 kg/mmol/h
- activity ([3]; Activator Equiv 1.4, TNOAL 0.75 umol, MCN-1 30 nmol, 85° C., propylene 135 psi): 127 kg/mmol/h and 103 kg/mmol/h
- activity ([3]; Activator Equiv 1.6, TNOAL 0.25 umol, MCN-1 30 nmol, 85° C., propylene 135 psi): 229 kg/mmol/h and 203 kg/mmol/h and 180 kg/mmol/h
- activity ([3]; Activator Equiv 1.6, TNOAL 0.50 umol, MCN-1 30 nmol, 85° C., propylene 135 psi): 168 kg/mmol/h and 144 kg/mmol/h
- activity ([3]; Activator Equiv 1.6, TNOAL 0.75 umol, MCN-1 30 nmol, 85° C., propylene 135 psi): 129 kg/mmol/h and 117 kg/mmol/h
- average catalyst activity, comparison of the four activators (FIG. 6) ([3]; MCN-1, polypropylene at 100° C., Table 7 runs): much lower activity
- activity ([3]; propylene, 85 °C, 135 psi, MCN-1 = 20 nmol, activator = 20 nmol, TNOAL 500 nmol): 75 kg/mmol/h and 55 kg/mmol/h
- activity [3, 8]: 49 kg/mmol/h and 60 kg/mmol/h and 96 kg/mmol/h
- activity [4]: 620 kg/mmol/h and 352 kg/mmol/h
- activity [5]: 2494 kg/mmol/h and 1709 kg/mmol/h
- activity [6]: 825 kg/mmol/h and 863 kg/mmol/h
- activity [7]: 48 kg/mmol/h and 65 kg/mmol/h
